Our source for the IC50 values is patent US12209081B2 (Katholieke Universiteit Leuven, priority 2020, dated 2025).

For orientation: IC50 means the concentration needed to halve the response being measured. A higher IC50 goes with a need for much substance.

Structures are written as SMILES.

In the assay the target is mouse TRPM3α2 (mTRPM3) ion channel (Mus musculus (Mouse), UniProt J9SQF3). The assay can be described thus: TRPM3 ion channel driven Ca2+ uptake, Fluo-4 AM assay, mTRPM3alpha2 overexpressing flip-in HEK293 cells stimulated with pregnenolone sulfate. Type of assay: cell-based. The conditions noted are these: PS (50 μM) stimulated, cpds. 608-666. In a few lines: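 Flip-in HEK293 cells loaded with Fluo-4 AM were added to plates holding compound plus 50 μM pregnenolone sulfate in Ca2+-containing Krebs buffer. Fluorescence (ex 485/em 535 nm) read directly after cell addition; % inhibition relative to PS-stimulated vehicle and positive-control inhibitor.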
Chain of mouse TRPM3α2 (mTRPM3) ion channel (J9SQF3 other isoform, or with tags, fused parts or gaps): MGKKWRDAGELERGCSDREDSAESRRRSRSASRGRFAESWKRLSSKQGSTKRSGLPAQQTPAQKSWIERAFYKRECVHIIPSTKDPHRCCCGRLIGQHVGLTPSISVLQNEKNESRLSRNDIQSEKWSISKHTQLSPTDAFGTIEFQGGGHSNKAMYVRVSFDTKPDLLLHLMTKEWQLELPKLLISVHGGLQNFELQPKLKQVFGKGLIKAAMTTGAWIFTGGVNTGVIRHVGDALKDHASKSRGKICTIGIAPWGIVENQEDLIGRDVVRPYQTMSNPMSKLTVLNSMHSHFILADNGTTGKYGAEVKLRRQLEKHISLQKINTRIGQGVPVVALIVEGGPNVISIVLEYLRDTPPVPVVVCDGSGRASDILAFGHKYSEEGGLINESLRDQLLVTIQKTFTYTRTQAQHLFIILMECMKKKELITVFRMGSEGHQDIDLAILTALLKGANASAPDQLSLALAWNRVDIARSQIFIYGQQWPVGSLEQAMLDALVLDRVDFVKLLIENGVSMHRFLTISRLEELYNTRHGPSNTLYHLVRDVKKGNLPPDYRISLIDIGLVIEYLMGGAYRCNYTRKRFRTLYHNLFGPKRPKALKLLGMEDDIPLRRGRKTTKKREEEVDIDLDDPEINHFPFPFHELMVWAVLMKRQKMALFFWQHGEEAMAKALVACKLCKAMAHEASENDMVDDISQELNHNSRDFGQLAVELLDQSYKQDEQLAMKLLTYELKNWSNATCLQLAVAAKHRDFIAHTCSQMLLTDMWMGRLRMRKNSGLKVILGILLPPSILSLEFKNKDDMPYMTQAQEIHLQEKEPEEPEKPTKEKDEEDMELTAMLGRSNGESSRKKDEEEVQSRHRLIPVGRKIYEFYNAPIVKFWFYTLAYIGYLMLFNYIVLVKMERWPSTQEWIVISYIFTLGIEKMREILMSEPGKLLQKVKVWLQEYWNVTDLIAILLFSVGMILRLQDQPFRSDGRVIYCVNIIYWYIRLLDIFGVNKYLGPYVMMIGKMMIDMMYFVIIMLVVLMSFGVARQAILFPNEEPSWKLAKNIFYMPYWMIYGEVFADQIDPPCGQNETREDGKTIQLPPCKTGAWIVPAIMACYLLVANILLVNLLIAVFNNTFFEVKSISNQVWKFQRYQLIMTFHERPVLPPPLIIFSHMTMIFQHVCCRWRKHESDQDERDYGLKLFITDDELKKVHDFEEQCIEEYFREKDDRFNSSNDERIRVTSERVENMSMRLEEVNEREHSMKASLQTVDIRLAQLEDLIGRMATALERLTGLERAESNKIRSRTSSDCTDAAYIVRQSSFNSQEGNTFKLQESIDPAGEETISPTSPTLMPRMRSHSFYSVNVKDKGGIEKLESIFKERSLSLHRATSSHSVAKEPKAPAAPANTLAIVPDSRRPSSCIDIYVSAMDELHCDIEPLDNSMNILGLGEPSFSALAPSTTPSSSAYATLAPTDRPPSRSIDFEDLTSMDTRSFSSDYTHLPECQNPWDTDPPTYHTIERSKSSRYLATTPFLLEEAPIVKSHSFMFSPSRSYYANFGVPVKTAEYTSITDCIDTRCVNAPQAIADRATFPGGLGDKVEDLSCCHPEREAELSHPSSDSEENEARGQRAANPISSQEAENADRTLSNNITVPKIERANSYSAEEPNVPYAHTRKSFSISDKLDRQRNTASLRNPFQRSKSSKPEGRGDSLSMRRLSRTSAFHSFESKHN
For the compound `Cc1oc2ccc(OCc3ccnn3C)cc2c1C(=O)NC1(CO)CCOCC1` [compound 608, N-(4-(hydroxymethyl)tetrahydro-2H-pyran-4-yl)-2-methyl-5-((1-methyl-1H-pyrazol-5-yl)methoxy)benzofuran-3-carboxamide], the IC50 is < 1000 nM.

`Cc1ncccc1COc1ccc2oc(C)c(C(=O)NC3(CO)CCOCC3)c2c1` [compound 611, N-(4-(hydroxymethyl)tetrahydro-2H-pyran-4-yl)-2-methyl-5-((2-methylpyridin-3-yl)methoxy)benzofuran-3-carboxamide]: the IC50 was < 1000 nM.

For the compound `Cc1ncc(COc2ccc3oc(C)c(C(=O)NC4(CO)CCOCC4)c3c2)s1` [compound 613, N-(4-(hydroxymethyl)tetrahydro-2H-pyran-4-yl)-2-methyl-5-((2-methylthiazol-5-yl)methoxy)benzofuran-3-carboxamide], the IC50 is < 1000 nM.

For `Cc1oc2ccc(OCc3ccc[nH]c3=O)cc2c1C(=O)NC1(CO)CCOCC1` [compound 614, N-(4-(hydroxymethyl)tetrahydro-2H-pyran-4-yl)-2-methyl-5-((2-oxo-1,2-dihydropyridin-3-yl)methoxy)benzofuran-3-carboxamide], the IC50 was < 1000 nM.

For the compound `Cc1oc2ccc(OCc3c[nH]nc3C(F)(F)F)cc2c1C(=O)NC1(CO)CCOCC1` [compound 615, N-(4-(hydroxymethyl)tetrahydro-2H-pyran-4-yl)-2-methyl-5-((3-(trifluoromethyl)-1H-pyrazol-4-yl)methoxy)benzofuran-3-carboxamide], the IC50 was < 1000 nM.

Regarding `Cc1cc(COc2ccc3oc(C)c(C(=O)NC4(CO)CCOCC4)c3c2)no1` [compound 618, N-(4-(hydroxymethyl)tetrahydro-2H-pyran-4-yl)-2-methyl-5-((5-methylisoxazol-3-yl)methoxy)benzofuran-3-carboxamide], the IC50 is < 1000 nM.

Take `Cc1cnc(COc2ccc3oc(C)c(C(=O)NC4(CO)CCOCC4)c3c2)s1` [compound 620, N-(4-(hydroxymethyl)tetrahydro-2H-pyran-4-yl)-2-methyl-5-((5-methylthiazol-2-yl)methoxy)benzofuran-3-carboxamide]: the IC50 is < 1000 nM.

On to `Cc1ccc(COc2ccc3oc(C)c(C(=O)NC4(CO)CCOCC4)c3c2)nn1` [compound 621, N-(4-(hydroxymethyl)tetrahydro-2H-pyran-4-yl)-2-methyl-5-((6-methylpyridazin-3-yl)methoxy)benzofuran-3-carboxamide], for which the IC50 was > 20000 nM.

With `Cc1oc2ccc(OCc3cccnn3)cc2c1C(=O)NC1(CO)CCOCC1` [compound 624, N-(4-(hydroxymethyl)tetrahydro-2H-pyran-4-yl)-2-methyl-5-(pyridazin-3-ylmethoxy)benzofuran-3-carboxamide], the IC50 is < 1000 nM.

For the compound `Cc1oc2ccc(OCc3cccnc3)cc2c1C(=O)NC1(CO)CCOCC1` [compound 625, N-(4-(hydroxymethyl)tetrahydro-2H-pyran-4-yl)-2-methyl-5-(pyridin-3-ylmethoxy)benzofuran-3-carboxamide], the IC50 was < 1000 nM.

As for `Cc1oc2ccc(OCc3cncs3)cc2c1C(=O)NC1(CO)CCOCC1` [compound 627, N-(4-(hydroxymethyl)tetrahydro-2H-pyran-4-yl)-2-methyl-5-(thiazol-5-ylmethoxy)benzofuran-3-carboxamide], the IC50 is < 1000 nM.

On to `COc1cc(COc2ccc3oc(C)c(C(=O)NC4(CO)CCOCC4)c3c2)ccn1` [compound 629, N-(4-(hydroxymethyl)tetrahydro-2H-pyran-4-yl)-5-((2-methoxypyridin-4-yl)methoxy)-2-methylbenzofuran-3-carboxamide], for which the IC50 is < 1000 nM.

`Cc1oc2ccc(OCc3cccc(O)n3)cc2c1C(=O)NC1(CO)CCOCC1` [compound 630, N-(4-(hydroxymethyl)tetrahydro-2H-pyran-4-yl)-5-((6-hydroxypyridin-2-yl)methoxy)-2-methylbenzofuran-3-carboxamide]: the IC50 was > 20000 nM.

In the case of `Cc1oc2ccc(OCc3ccc(O)nc3)cc2c1C(=O)NC1(CO)CCOCC1` [compound 631, N-(4-(hydroxymethyl)tetrahydro-2H-pyran-4-yl)-5-((6-hydroxypyridin-3-yl)methoxy)-2-methylbenzofuran-3-carboxamide], the IC50 is > 20000 nM.

With `Cc1ncsc1COc1ccc2oc(C)c(C(=O)N(C)C3(CO)CCOCC3)c2c1` [compound 634, N-(4-(hydroxymethyl)tetrahydro-2H-pyran-4-yl)-N.2-dimethyl-5-((4-methylthiazol-5-yl)methoxy)benzofuran-3-carboxamide], the IC50 was < 1000 nM.

Consider `Cc1ncsc1COc1ccc2oc(C)c(C(=O)NC(C)(C)CC(N)=O)c2c1` [compound 649, N-(4-amino-2-methyl-4-oxobutan-2-yl)-2-methyl-5-((4-methylthiazol-5-yl)methoxy)benzofuran-3-carboxamide], for which the IC50 is < 1000 nM.

`Cc1ncsc1COc1ccc2oc(C)c(C(=O)NC3(C(N)=O)CCOCC3)c2c1` [compound 650, N-(4-carbamoyltetrahydro-2H-pyran-4-yl)-2-methyl-5-((4-methylthiazol-5-yl)methoxy)benzofuran-3-carboxamide]: the IC50 was < 1000 nM.

On to `Cc1oc2ccc(OCc3cccnc3C(F)(F)F)cc2c1C(=O)NC(C)(C)CCO` [compound 651, N-(4-hydroxy-2-methylbutan-2-yl)-2-methyl-5-((2-(trifluoromethyl)pyridin-3-yl)methoxy)benzofuran-3-carboxamide], for which the IC50 is < 1000 nM.

Turning to `Cc1ncsc1COc1ccc2oc(C)c(C(=O)NC(C)(C)CCO)c2c1` [compound 652, N-(4-hydroxy-2-methylbutan-2-yl)-2-methyl-5-((4-methylthiazol-5-yl)methoxy)benzofuran-3-carboxamide], the IC50 is < 1000 nM.

Consider `Cc1ncsc1COc1ccc2oc(C(N)=O)c(C(=O)NC3(CO)CCOCC3)c2c1` [compound 658, N3-(4-(hydroxymethyl)tetrahydro-2H-pyran-4-yl)-5-((4-methylthiazol-5-yl)methoxy)benzofuran-2,3-dicarboxamide], for which the IC50 was > 20000 nM.

As for `Cc1ncsc1COc1ccc2oc(C)c(C(=O)N(CCO)C3CCC3)c2c1` [compound 660, N-cyclobutyl-N-(2-hydroxyethyl)-2-methyl-5-((4-methylthiazol-5-yl)methoxy)benzofuran-3-carboxamide], the IC50 was > 20000 nM.

`Cc1oc2ccc(OCc3cccnc3)cc2c1C(=O)NC(CO)C(N)=O` (stereo not drawn) [compound 662, N-(1-amino-3-hydroxy-1-oxopropan-2-yl)-2-methyl-5-(pyridin-3-ylmethoxy)benzofuran-3-carboxamide]: the IC50 is < 1000 nM.

Take `COc1ncccc1COc1ccc2oc(C)c(C(=O)NC3CNCC3(F)F)c2c1` (stereo not drawn) [compound 663, N-(4,4-difluoropyrrolidin-3-yl)-5-((2-methoxypyridin-3-yl)methoxy)-2-methylbenzofuran-3-carboxamide]: the IC50 is < 1000 nM.

`Cc1oc2ccc(OCc3cccnc3C(F)(F)F)cc2c1C(=O)NC1COCC1(F)F` (stereo not drawn) [compound 664, N-(4,4-difluorotetrahydrofuran-3-yl)-2-methyl-5-((2-(trifluoromethyl)pyridin-3-yl)methoxy)benzofuran-3-carboxamide]: the IC50 was < 1000 nM.
